Test [1] deals with T1, RNase H of HBV polymerase (HBV-RNase H) (Hepatitis B virus ayw/France/Tiollais/1979, UniProt P03156).
T1 construct: amylose/maltose step implies MBP fusion
Briefly: inhibitory effects against RNase H activity of HBV polymerase. It counts as biochemical. Particulars: read-out: Inhibitory effect of HBV-RNase H; for inhibition at 0.1 µg/mL: 0.1 μg/ml; for inhibition at 1 µg/mL: 1 μg/ml. As to the method:
Experiment 2: The inhibitory effects against RNase H activity of HBV polymerase.
1) Expression of the RNase H domain derived from human HBV polymerase
E.coli NM 522 was transformed by the expression vector pMRH respectively and the transformants were cultured in LB medium at 37° C., overnight. These growing cultures were diluted 1:100, inoculated into a glucose rich medium and incubated until OD600 reached 0.5. Then IPTG (isopropylthiogalactoside) was added into the medium of which the fine concentration was 0.5 mM. The above growing cultures were incubated again at 20° C. for 16 hours and the RNase H domain was expressed.
The above cultured broth was centrifuged for 10 minutes at 3,000 rpm and the cell pellet was washed with 10 ml of TNE column buffer (10 mN Tris-Cl, pH 8.0, 200 mM NaCl, 1 mM EDTA), and resuspended in 10 ml of TNE column buffer. The cells were freezed and thawed 4 times repeatedly, and then disrupted by sonication for 10 seconds 3 times. The crude extract prepared in the above process was centrifuged for 30 minutes at 13,000 rpm, 4° C. and the supernatant was separated. The above process was repeated 2 times and then the supernatant passed the amylose resin. The resin was washed by using column buffer with 50 times of resin volume, and the RNase H domain was eluted by using buffer containing 10 mM maltose.
In addition, the RNase H domain produced from the expression vector pMRH was purified by using histidine tag affinity column, because RNase H has a histidine tag at the C-terminus. The resin (Ni-NTA, QIAGEN) used in the histidine tag affinity column was activated by using sonication buffer (50 mM sodium phosphate, pH 8.0, 300 mM sodium chloride) and 4~5 ml of the activated resin was charged in the glass tube whose diameter was about 1 cm. The protein sample obtained from above description passed the resin at the 0.1 ml/ min flow rate and the column was washed by using washing buffer with the 100~200 times volume of protein sample (50 mM sodium phosphate, pH 6.0, 300 mM sodium chloride, 10% glycerol). The recombinant protein was eluted by washing the column with concentration gradient of 0.01~0.5 M imidazole.
As a result, the active RNase H domain was separated from the histidine tag affinity column at 30 mM concentration of imidazole. The purified RNase H domain was mixed with 50% glycerol for storage at -20° C. after the removal of imidazole from it and employed fol the screening of HBV inhibitors.
2) Preparation of the substrate of the RNase H enzyme
In order to identify the RNase H activity, RNA/DNA complex which can be used as a substrate of the RNase H enzyme was prepared by performing in vitro transcription with […].
3) Screening of active inhibitors against RNase H
The RNase H activity was measured by using recombinant RNase H enzyme and radiolabled RNA/DNA hybrid. In order to measure the RNase H activity, 1 μg of RNase H enzyme and test compound were mixed with buffer solution containing 40 mM Tris-Cl (pH 8.0), 4 mM magnesium chloride, 40 mM potassium chloride and 2 mM DTT. The mixture was pretreated on ice for 10 minutes. After pretreatment is completed, RNA/DNA hybrid was added to incubate at 37° C. for 3 hours. After the reaction was stopped, 7.5 M ammonium acetate in a volume of 1/2 and ethanol in a 3-fold volume were added. The above reaction mixture was incubated at -20° C. for more than 2 hours and centrifuged for 15 minutes at 4° C., 13,000 rpm. The supernatant was obtained and the radioactive signal of supernatant was measured by scintillation counter.
As a control, water was added instead of test compound and the inhibitory activity was calculated to compare with the control, when the radioactivity intensity on each test compound, was obtained.

Test [2] deals with T2, HBV polymerase reverse transcriptase (HBV-RT) (Hepatitis B virus genotype D subtype ayw, UniProt P03156).
T2 construct: made in house; host or cells: E. coli
Briefly: inhibitory activity against HBV polymerase in vitro (reverse transcriptase activity). It counts as biochemical. Particulars: read-out: Inhibitory effect of HBV-RT; for inhibition at 0.1 µg/mL: 0.1 μg/ml; for inhibition at 1 µg/mL: 1 μg/ml. The source says:
Experiment 1: The inhibitory activity against HBV polymerase in vitro.
Recently, the inventors of the present invention have produced a recombinant HBV polymerase that is expressed from E.coli transformant, measured its enzyme activity and filed patent applications thereof [Korean Patent Application Nos. 94-3918, 96-33998 and 96-63255].
The inventions have established a method of measuring the reverse transcriptase activity of HBV polymerase in vitro. The fundamental principle is the same as the ELISA method, and after reacting the substrate with biotin- and DIG-modified nucleotide, a method of recognizing the polymerized substrate as anti-DIG antibody with peroxidase was used. […] and 20 μ of test compound were mixed and reacted at 14~30° C. for 18~24 hours. Then, the inhibitory effect of test compound against reverse trascriptase activity in the HBV polymerase was examined, compared with the results of control tests without the test compound.

Test [3] has as its target T3, HIV reverse transcriptase (HIV-RT) (Human immunodeficiency virus type 1 group M subtype B, UniProt P04585).
T3 construct: purchased Boehringer Mannheim
Briefly: in vitro inhibition test against HIV reverse transcriptase. It counts as biochemical, HIV (AIDS virus). Particulars: read-out: Inhibitory effect of HIV-RT; for inhibition at 0.1 µg/mL: 0.1 μg/ml; for inhibition at 1 µg/mL: 1 μg/ml. The method, then:
Experiment 3: The in vitro inhibition test against HIV reverse transcriptase
The inhibitory activity in vitro was measured using a non-radioactive reverse transcriptase assay Kit (Boehringer Mannheim).
At first, 20 μl(40 ng) HIV-RT was added to the wells coated with streptavidin and with the addition of 20 μl, reaction mixture containing template/primer hybrid poly(A)/oligo(dT)15 and DIG-(digoxigenin)-dUTP, biotin-dUTP and TTP, 20 μl test compound was added and reacted at 37° C. for 1 hour. The control without test compound was used for the comparison of related activity. Since DNA containing nucleotide labeled with digoxigenin and biotine was prepared by the action of HIV-RT, it was combined with streptavidin coated at the bottom of the wells. After the reaction was completed, remaining impurities were removed by washing each well with 20 μl buffer solution (pH 7.0) for 30 seconds 5 times and with the addition of 200 μl anti-DIG-POD antibody, the mixture was reacted at 37° C. for 1 hour. For the removal of remaining impurities again, the reacting solution was washed with a buffer solution and with the addition of 200μl ABTS™ each, a substrate of POD(peroxidase), the solution was reacted at room temperature for 30 minutes. The absorbance was read by ELISA reader at 405 nm for the assay of reverse transcriptase activity and its inhibition activity.

T1 sequence (P03156 680-832): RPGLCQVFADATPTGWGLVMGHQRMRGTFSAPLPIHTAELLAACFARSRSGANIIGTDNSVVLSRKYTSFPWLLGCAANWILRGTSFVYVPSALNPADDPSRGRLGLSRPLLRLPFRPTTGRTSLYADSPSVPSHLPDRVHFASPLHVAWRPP
T2 sequence (P03156 whole entry): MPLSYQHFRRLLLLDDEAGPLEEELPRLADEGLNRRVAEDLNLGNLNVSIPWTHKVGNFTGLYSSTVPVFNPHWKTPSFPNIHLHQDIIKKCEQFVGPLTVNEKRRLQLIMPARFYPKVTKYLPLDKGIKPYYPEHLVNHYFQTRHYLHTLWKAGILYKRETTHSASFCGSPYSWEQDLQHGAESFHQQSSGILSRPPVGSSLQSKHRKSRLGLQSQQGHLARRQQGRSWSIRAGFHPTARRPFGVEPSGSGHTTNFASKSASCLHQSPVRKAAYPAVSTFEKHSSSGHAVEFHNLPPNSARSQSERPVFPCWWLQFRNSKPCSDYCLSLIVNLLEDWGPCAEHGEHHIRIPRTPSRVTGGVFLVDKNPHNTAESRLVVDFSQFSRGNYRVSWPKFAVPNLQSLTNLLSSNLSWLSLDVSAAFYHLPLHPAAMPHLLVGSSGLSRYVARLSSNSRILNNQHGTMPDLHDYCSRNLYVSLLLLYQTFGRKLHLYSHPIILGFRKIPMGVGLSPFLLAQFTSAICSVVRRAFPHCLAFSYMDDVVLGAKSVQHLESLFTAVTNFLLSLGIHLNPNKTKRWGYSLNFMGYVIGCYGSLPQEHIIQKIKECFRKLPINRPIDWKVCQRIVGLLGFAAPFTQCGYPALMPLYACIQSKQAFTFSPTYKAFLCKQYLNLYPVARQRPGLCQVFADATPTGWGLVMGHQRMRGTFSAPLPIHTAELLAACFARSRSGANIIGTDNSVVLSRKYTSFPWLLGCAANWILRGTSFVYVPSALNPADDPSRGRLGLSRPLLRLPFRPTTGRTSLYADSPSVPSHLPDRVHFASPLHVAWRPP

As to `CC(C)Nc1cccnc1N1CCN(C(=O)c2ccc(C(=O)N3CCN(CC(O)CO)CC3)cc2)CC1` (stereo not drawn) [Compound No. 31, 4-(2,3-Dihydroxypropyl)-1-[4-[1-[3-(isopropylamino)-2-pyridyl]piperazin-4-yl-carbonyl]benzoyl]piperazine], the inhibition at 0.1 µg/mL is 80% in test [1] and 30% in test [2]. Also, the figures for the inhibition at 1 µg/mL in test [1] and in test [2] were 85% and 52%, respectively.
On to `CC(C)Nc1cccnc1N1CCN(C(=O)c2ccc(C(=O)NCCN(C)C)cc2)CC1` [Compound No. 83, 1-[N-[2-(Dimethylamino)ethyl]carbamoyl]-4-[1-[3-(isopropylamino)-2-pyridyl]piperazin-4-yl-carbonyl]benzene], for which the inhibition at 0.1 µg/mL in test [3] and in test [2] was 62% in each case. Besides, the inhibition at 1 µg/mL in test [3] and in test [2] was 65% each time.
As for `CC(C)Nc1cccnc1N1CCN(C(=O)c2ccc(C(=O)NCCN3CCOCC3)cc2)CC1` [Compound No. 79, 4-[1-[3-(Isopropylamino)-2-pyridyl]piperazin-4-yl-carbonyl]-1-[N-[2-(morpholin-4-yl)ethyl]carbamoyl]benzene], in test [3], the inhibition at 0.1 µg/mL came out at 59% and the inhibition at 1 µg/mL is 71%. For the same molecule, in test [2], the inhibition at 0.1 µg/mL is 65% and the inhibition at 1 µg/mL is 72%.
With `CCN(CCO)C(=O)c1ccc(C(=O)N2CCN(c3ncccc3NC(C)C)CC2)cc1` [Compound No. 6, 1-[N-Ethyl-N-(2-hydroxyethyl)carbamoyl]-4-[1-[3-(isopropylamino)-2-pyridyl]piperazin-4-yl-carbonyl]benzene], in test [1], the inhibition at 0.1 µg/mL stood at 55% and the inhibition at 1 µg/mL was found to be 83%. For the same molecule, in test [2], the inhibition at 0.1 µg/mL is 30% and the inhibition at 1 µg/mL is 51%.
As to `CC(C)Nc1cccnc1N1CCN(C(=O)c2ccc(C(=O)N[C@H](CO)c3ccccc3)cc2)CC1` [Compound No. 48, 1-[N-[(1S)-2-Hydroxy-1-phenylethyl]carbamoyl]-4-[1-[3-(isopropylamino)-2-pyridyl]piperazin-4-yl-carbonyl]benzene], in test [3], the inhibition at 0.1 µg/mL is 46% and the inhibition at 1 µg/mL amounted to 51%. Besides, in test [2], the inhibition at 0.1 µg/mL turned out to be 61% and the inhibition at 1 µg/mL is 80%.
The matching figures for `CC(C)Nc1cccnc1N1CCN(C(=O)c2ccc(C(=O)NC(C)(C)CO)cc2)CC1` [Compound No. 34, 1-[N-(1,1-Dimethyl-2-hydroxyethyl)carbamoyl]-4-[1-[3-(isopropylamino)-2-pyridyl]piperazin-4-yl-carbonyl]benzene]: 43%, 51%, 41% and 53%.
On to `COCCN(CCOC)C(=O)c1ccc(C(=O)N2CCN(c3ncccc3NC(C)C)CC2)cc1` [Compound No. 62, 1-[N,N-Bis(2-methoxyethyl)carbamoyl]-4-[1-[3-(isopropylamino)-2-pyridyl]piperazin-4-yl-carbonyl]benzene], for which, in test [3], the inhibition at 0.1 µg/mL was 41% and the inhibition at 1 µg/mL is 58%. For the same molecule, in test [2], the inhibition at 0.1 µg/mL came out at 53% and the inhibition at 1 µg/mL was found to be 60%.
Regarding `CC(C)Nc1cccnc1N1CCN(C(=O)c2ccc(C(=O)N3CCN(CCCO)CC3)cc2)CC1` [Compound No. 27, 4-(3-Hydroxypropyl)-1-[4-[1-[3-(isopropylam-ino)-2-pyridyl]piperazin-4-yl-carbonyl]benzoyl]piperazine], the inhibition at 0.1 µg/mL in test [1] was 73%; in test [3] it was 40%. In addition, the values for the inhibition at 1 µg/mL in test [1] and in test [3] were 81% and 68%, respectively.
Take `CC(C)Nc1cccnc1N1CCN(C(=O)c2ccc(C(=O)NCCCO)cc2)CC1` [Compound No. 2, 1-[N-(3-Hydroxypropyl)carbamoyl]-4-[1-[3-(isopropylamino)-2-pyridyl]piperazin-4-yl-carbonyl]benzene]: in test [3], the inhibition at 0.1 µg/mL came to 35% and the inhibition at 1 µg/mL turned out to be 40%. Further, in test [2], the inhibition at 0.1 µg/mL was determined as 34% and the inhibition at 1 µg/mL is 42%.
Taken in the same sequence, the figures for `CC(C)Nc1cccnc1N1CCN(C(=O)c2ccc(C(=O)N3CCN(CCOCCO)CC3)cc2)CC1` [Compound No. 32, 4-[2-(2-Hydroxyethoxy)ethyl]-1-[4-[1-[3-(isopropylamino)-2-pyridyl]piperazin-4-yl-carbonyl]benzoyl]piperazine] were 27%, 58%, 40% and 71%.
As for `CC(C)Nc1cccnc1N1CCN(C(=O)c2ccc(C(=O)N3CCNCC3)cc2)CC1` [Compound No. 19, 1-[4-[1-[3-(Isopropylamino)-2-pyridyl]piperazin-4-yl-carbonyl]benzoyl]piperazine], in test [1], the inhibition at 0.1 µg/mL came to 38% and the inhibition at 1 µg/mL was 53%. In addition, in test [3], the inhibition at 0.1 µg/mL was 43% and the inhibition at 1 µg/mL was 52%.
With `COCCNC(=O)c1ccc(C(=O)N2CCN(c3ncccc3NC(C)C)CC2)cc1` [Compound No. 61, 4-[1-[3-(Isopropylamino)-2-pyridyl]piperazin-4-yl-carbonyl]-1-[N-(2-methoxyethyl)carbamoyl]benzene], in test [3], the inhibition at 0.1 µg/mL is 32% and the inhibition at 1 µg/mL was determined as 65%. For the same molecule, in test [2], the inhibition at 0.1 µg/mL came to 33% and the inhibition at 1 µg/mL turned out to be 81%.

The record behind these values is US5922871A, “Terephthalamide derivatives” (Dongwha Pharmaceutical Ind. Co., Ltd., priority 1997, dated 1999).
